Activity calls are given as the source filed them.
Experiments:
[1] = biological target: T1, Heat shock factor protein 1 (Mus musculus, UniProt P38532); experiment: inhibition of MG132-induced HSE-luciferase signal, confirmation, cell-based, NIH3T3, luminescence, dose retest (AID 2382); format: functional;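 also: NIH3T3 fibroblasts with HSF1-driven luciferase reporter stressed by proteasome inhibitor MG132; luminescence from HSF1-driven luciferase expression after 8 hours of MG132 stress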
T1 sequence (P38532 whole entry): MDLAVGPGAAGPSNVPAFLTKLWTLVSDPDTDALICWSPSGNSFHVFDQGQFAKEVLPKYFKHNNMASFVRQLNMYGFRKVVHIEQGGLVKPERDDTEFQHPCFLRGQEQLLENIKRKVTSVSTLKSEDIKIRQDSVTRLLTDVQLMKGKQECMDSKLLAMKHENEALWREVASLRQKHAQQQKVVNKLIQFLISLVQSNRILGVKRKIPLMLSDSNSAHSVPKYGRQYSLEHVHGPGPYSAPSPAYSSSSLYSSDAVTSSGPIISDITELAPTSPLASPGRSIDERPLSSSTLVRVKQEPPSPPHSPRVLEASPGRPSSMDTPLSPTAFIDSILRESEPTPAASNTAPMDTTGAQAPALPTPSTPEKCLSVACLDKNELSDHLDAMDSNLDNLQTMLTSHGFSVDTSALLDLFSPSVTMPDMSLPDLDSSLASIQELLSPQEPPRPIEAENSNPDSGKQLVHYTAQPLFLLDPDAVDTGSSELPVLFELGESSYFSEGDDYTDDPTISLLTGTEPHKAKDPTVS

[2] = biological target: Cytochrome P450 2C19 (Homo sapiens, UniProt P33261); experiment: Cytochrome panel assay with activity outcomes. Panel member name: p450-cyp2c19 Compounds with AC50 equal or less than 10 uM are considered active; format: functional; conditions: read-out: AC50
Sequence of Cytochrome P450 2C19 (P33261 whole entry): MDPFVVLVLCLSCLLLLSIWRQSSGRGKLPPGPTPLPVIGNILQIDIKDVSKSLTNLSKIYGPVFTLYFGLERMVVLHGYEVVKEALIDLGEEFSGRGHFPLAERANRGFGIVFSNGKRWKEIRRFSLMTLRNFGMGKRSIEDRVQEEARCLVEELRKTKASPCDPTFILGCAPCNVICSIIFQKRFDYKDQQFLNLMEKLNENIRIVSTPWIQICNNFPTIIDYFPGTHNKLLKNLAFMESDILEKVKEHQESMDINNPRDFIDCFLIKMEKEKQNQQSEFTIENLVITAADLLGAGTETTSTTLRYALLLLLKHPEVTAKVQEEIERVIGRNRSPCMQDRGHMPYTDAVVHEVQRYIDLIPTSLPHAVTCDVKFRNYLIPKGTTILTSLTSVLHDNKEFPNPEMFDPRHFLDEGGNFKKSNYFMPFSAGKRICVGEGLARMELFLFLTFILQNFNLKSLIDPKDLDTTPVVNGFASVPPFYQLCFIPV

[3] = biological target: Cytochrome P450 2C9 (Homo sapiens, UniProt P11712)
Sequence of Cytochrome P450 2C9 (P11712 whole entry): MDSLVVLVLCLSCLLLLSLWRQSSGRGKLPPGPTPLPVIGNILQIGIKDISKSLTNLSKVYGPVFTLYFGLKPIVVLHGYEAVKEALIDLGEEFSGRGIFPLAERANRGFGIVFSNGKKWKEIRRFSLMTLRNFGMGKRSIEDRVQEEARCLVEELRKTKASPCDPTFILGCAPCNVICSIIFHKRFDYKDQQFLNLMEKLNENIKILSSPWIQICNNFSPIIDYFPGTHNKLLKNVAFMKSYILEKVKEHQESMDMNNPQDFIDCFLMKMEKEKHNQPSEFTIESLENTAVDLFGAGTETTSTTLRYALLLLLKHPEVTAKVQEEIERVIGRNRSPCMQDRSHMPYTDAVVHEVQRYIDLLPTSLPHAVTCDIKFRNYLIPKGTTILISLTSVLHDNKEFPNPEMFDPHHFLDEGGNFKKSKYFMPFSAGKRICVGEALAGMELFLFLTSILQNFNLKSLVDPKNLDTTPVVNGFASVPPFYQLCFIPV

[4] = biological target: T2, Cytochrome P450 3A4 (Homo sapiens, UniProt P08684)
T2 sequence (P08684 whole entry): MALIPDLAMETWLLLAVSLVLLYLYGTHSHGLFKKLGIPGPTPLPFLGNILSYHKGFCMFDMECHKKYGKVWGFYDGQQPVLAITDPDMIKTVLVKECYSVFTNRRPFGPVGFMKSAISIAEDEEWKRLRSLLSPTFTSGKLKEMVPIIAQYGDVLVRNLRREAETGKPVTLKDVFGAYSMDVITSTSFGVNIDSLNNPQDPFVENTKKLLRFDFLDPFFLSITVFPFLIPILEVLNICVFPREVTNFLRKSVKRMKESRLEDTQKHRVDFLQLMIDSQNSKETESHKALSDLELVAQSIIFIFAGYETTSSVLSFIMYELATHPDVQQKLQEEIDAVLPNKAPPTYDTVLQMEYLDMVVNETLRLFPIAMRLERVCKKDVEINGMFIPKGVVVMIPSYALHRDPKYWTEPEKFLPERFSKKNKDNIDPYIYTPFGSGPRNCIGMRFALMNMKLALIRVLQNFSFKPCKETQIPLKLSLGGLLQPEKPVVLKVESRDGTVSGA

[5] = biological target: Cytochrome P450 2D6 (Homo sapiens, UniProt P10635);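 also: CYP2D6 member of a cytochrome P450 panel assay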
Sequence of Cytochrome P450 2D6 (P10635 whole entry): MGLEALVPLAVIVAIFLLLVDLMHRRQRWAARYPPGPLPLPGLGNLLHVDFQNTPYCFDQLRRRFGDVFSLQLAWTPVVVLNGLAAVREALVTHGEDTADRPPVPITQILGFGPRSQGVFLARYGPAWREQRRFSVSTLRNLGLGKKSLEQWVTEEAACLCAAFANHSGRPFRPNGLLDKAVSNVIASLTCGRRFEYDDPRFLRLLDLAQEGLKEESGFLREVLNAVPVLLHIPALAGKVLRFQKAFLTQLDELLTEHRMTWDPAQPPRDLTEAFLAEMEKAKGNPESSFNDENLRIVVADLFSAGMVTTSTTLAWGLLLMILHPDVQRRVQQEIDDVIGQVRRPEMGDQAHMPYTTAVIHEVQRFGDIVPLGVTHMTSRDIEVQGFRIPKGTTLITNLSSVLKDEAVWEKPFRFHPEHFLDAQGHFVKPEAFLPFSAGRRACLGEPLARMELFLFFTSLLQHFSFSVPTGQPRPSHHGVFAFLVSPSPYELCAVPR

[6] = cells; format: functional, cell-based
[7] = inhibitors of intracellular T. cruzi replication, confirmation, NIH3T3 host cells, beta-gal luminescence (AID 2044); format: functional, cell-based;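 also: intracellular parasites grown in NIH/3T3 mouse fibroblasts as host cells; luminescent beta-galactosidase reporter signal from transgenic T. cruzi replicating inside host cells; inhibitors lower the luminescence signal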
[8] = microbe, parasite or virus in culture; format: functional; conditions: Mycobacterium tuberculosis
[9] = cells; format: functional, cell-based; remark: listed apart in the source
[10] = cytotoxicity toward NIH3T3 fibroblasts, dose response, counter-screen, cell-based, ATP luminescence, mouse fibroblasts (AID 2010); format: functional;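 also: cells exposed to compound for about 90 hours before reading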
[11] = THP-1 cell cytotoxicity, dose response, cytotoxicity control for non-replicating M. tuberculosis project (AID 489025); format: functional
[12] = Vero E6 cell cytotoxicity, dose response, cytotoxicity control for non-replicating M. tuberculosis project, secondary assay (AID 492998); format: functional, VeroE6; conditions: Vero C1008
[13] = cells; format: functional
[14] = tested on: INS1; experiment: beta cell apoptosis inhibitors, cytokine rescue, dose response, luminescence, retest (AID 449756); format: functional, cell-based; conditions: Rattus norvegicus;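 also: cell death triggered by IL-1 beta plus TNF-alpha plus IFN-gamma mixture; protective hits raise ATP signal compared with cytokine alone wells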
[15] = tested on: Escherichia coli; experiment: microbe, parasite or virus in culture
[16] = growth suppression of PTEN-null colon cells, dose response, cell-based, HCT116 PTEN knockout (AID 1047); format: functional;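 also: HCT116 colon tumor cells with PTEN knocked out; cells exposed to compound for 60 hours before readout; potency for loss of cell viability measured by luminescence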
[17] = growth suppression of beta-catenin-knockout colon cells, dose response, cell-based, HCT116, human colon tumor (AID 1045); format: functional;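 also: HCT116 colon tumor cells with beta catenin knocked out; cells exposed to compound for 60 hours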
[18] = biological target: T3, DNA repair protein RAD52 homolog (Homo sapiens, UniProt P43351); format: functional, biochemical
T3 sequence (P43351 whole entry): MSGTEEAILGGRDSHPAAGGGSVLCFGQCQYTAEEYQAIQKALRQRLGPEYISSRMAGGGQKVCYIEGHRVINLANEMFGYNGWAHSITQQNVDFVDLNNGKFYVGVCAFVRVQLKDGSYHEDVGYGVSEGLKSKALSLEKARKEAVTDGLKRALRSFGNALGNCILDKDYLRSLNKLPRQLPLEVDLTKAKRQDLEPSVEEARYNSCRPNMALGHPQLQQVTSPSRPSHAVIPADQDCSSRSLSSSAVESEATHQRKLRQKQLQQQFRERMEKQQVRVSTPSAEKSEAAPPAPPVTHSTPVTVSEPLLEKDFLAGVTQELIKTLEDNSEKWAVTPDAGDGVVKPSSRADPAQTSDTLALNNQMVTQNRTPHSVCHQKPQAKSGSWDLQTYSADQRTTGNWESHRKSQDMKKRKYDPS

[19] = NIH-3T3 fibroblast cytotoxicity, dose response, cytotoxicity control, cell-based, fluorescence, Alamar Blue, secondary assay (AID 2327); format: functional;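 also: NIH-3T3 mouse fibroblasts cultured with fluconazole at 8 µg/mL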
[20] = inhibitors of firefly luciferase expression or activity, dose response, H4 neuroglioma cells, luminescence (AID 1990); format: functional, cell-based
[21] = Luminescence Cell-Based Dose Response HTS to Identify Inhibitors of 5'UTR Stem-Loop Driven Prion Protein mRNA Translation in H4 Neuroglioblastoma Cells. [Related pubchem assays: 1827 (Project Summary), 1813 (Primary HTS)]; format: functional
[22] = inhibitors of SNCA 5'UTR-driven reporter translation, confirmation, H4 neuroglioma cells, luminescence (AID 1988); format: functional, cell-based
[23] = C. albicans growth with fluconazole, confirmation, fluorescence, retest (AID 2467); format: functional, cell-based
[24] = THP-1 cell cytotoxicity, dose response, cytotoxicity control for Vif-APOBEC3G degradation inhibitor project, THP-1 cells (AID 1117359); format: functional; conditions: Human immunodeficiency virus 1, THP-1
[25] = biological target: T2, Cytochrome P450 3A4; conditions: Potency
[26] = cytotoxicity in HEK-293T cells, dose response, cytotoxicity control for TCR NF-kB inhibitor project, luminescence, T-cell screen hits (AID 489026); format: functional, cell-based;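 also: cells exposed to compound about 14 hours before the viability readout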

Q: For `CCC(C)(NC(=O)c1ccccn1)C(=O)NC1CCCCC1` (stereo unspecified), which EC50 [1] is on record?
A: > 195 µM (not active)

Q: And the AC50 [2]?
A: 10 µM (inconclusive)

Q: What about the AC50 [3] of the same molecule?
A: 17.8 µM (inconclusive)

Q: What about the AC50 [4] of the same molecule?
A: inconclusive

Q: For `O=C(c1cccc(F)c1)N1CCC2(CC1)CCN(c1ccc(-c3ccccc3)cc1)CC2`, which AC50 [5] is on record?
A: 10 µM (inconclusive)

Q: What about the AC50 [4] of the same molecule?
A: inconclusive

Q: For `c1ccc(CSc2ccc(-c3ccccn3)nn2)cc1`, which EC50 [6] is on record?
A: 85.6 µM (active)

Q: And the EC50 [7]?
A: 1.99 µM (active)

Q: And the CC50 [8]?
A: 36.9 µM (active)

Q: And the EC50 [9]?
A: 28.4 µM (active)

Q: And the EC50 [10]?
A: > 30 µM (not active)

Q: What about the CC50 [11] of the same molecule?
A: 14.2 µM (active)

Q: What about the CC50 [12] of the same molecule?
A: 12 µM (active)

Q: What about the IC50 [13] of the same molecule?
A: 15.1 µM (active)

Q: What about the AC50 [14] of the same molecule?
A: 5.5 µM (active)

Q: Which AC50 [3] does the source give for `O=C(c1ccco1)N1CCC2(CC1)CN(c1ccccc1)C2` here?
A: 25.1 µM (inconclusive)

Q: What about the AC50 [4] of the same molecule?
A: inconclusive

Q: Which AC50 [15] does the source give for `COc1ccc(CCN2C(=O)CC(NNC(=O)c3ccc(F)cc3)C2=O)cc1OC` (stereo unspecified) here?
A: 20.9 µM (active)

Q: For `CN(C)CCCN(C(=O)c1ccc2c(c1)CCCC2)c1nc2c(F)cccc2s1`, which EC50 [7] is on record?
A: 0.164 µM (active)

Q: What about the EC50 [16] of the same molecule?
A: 27 µM (active)

Q: And the EC50 [10]?
A: > 60 µM (not active)

Q: What about the EC50 [17] of the same molecule?
A: 30 µM (active)

Q: What about the AC50 [18] of the same molecule?
A: 35.2 µM (active)

Q: With `Cn1c(=O)c(-c2cc(F)cc(F)c2)nc2cnc(Oc3ccccc3)nc21` as the molecule, how does the AC50 [3] read?
A: 20 µM (inconclusive)

Q: What about the AC50 [4] of the same molecule?
A: inconclusive

Q: Which results are given for `O=C(CCNc1ccc(F)cc1)c1ccco1`?
A: CC50 [11]: > 40 µM (active); CC50 [12]: 17.9 µM (active); IC50 [13]: 13.6 µM (active)

Q: For `COc1ccc(-c2nc(CN3CCN(c4cc(C)nc(C)c4)CC3)c(C)o2)c2ccccc12`, which EC50 [19] is on record?
A: > 160 µM (inactive)

Q: And the EC50 [20]?
A: 20.9 µM (active)

Q: What about the EC50 [21] of the same molecule?
A: > 120 µM (not active)

Q: And the EC50 [22]?
A: 10.7 µM (active)

Q: And the EC50 [23]?
A: 3.22 µM (active)

Q: And the CC50 [8]?
A: 11.5 µM (active)

Q: What about the AC50 [18] of the same molecule?
A: 7 µM (active)

Q: Which results are given for `CCOc1ccc(C(=O)CCN2CCCCCC2)cc1`?
A: CC50 [8]: > 40 µM (active); CC50 [11]: > 40 µM (active); CC50 [12]: > 20 µM (active); IC50 [13]: 17.2 µM (active)

Q: Which CC50 [24] does the source give for `COc1ccccc1CNCC(=O)Nc1ccc(N2CCOCC2)cc1` here?
A: 30.7 µM (active)

Q: For `CCCn1c(C)nc2c(NC3CCN(Cc4ccccc4)C3)nc(C)nc21` (stereo unspecified), which AC50 [25] is on record?
A: 15.8 µM (inconclusive)

Q: For `Clc1ccc(CSc2nncn2-c2ccc3c(c2)OCCO3)cc1`, which EC50 [20] is on record?
A: > 120 µM (not active)

Q: And the EC50 [21]?
A: > 120 µM (not active)

Q: What about the EC50 [22] of the same molecule?
A: > 120 µM (not active)

Q: And the IC50 [26]?
A: > 80 µM (inactive)

Q: Which AC50 [15] does the source give for `O=C(CN1C(=O)NC2(CCCCC2)C1=O)NCc1cccs1` here?
A: 34.2 µM (active)

Reference: ChEMBL document CHEMBL1201862, “PubChem BioAssay data set” (2004)
